{"source": "patent US12409183B2", "about": "“Method of using iloprost for treating frostbite” (BTG INTERNATIONAL INC., priority 2023, dated 2025)", "key": {"severe frostbite [1]": {"test_system": "severe frostbite", "assay": "systematic literature review and meta-analysis of amputation rates in severe frostbite", "assay_type": "in vivo, human", "method": "Frostbite is an injury caused by exposure of tissue to freezing temperatures. Severe frostbite may result in amputation leading to considerable morbidity. The objective was to identify and synthesize, via systematic literature review and meta-analysis (MA), evidence published on patient-level historical amputation rates in adults with severe frostbite treated with and without iloprost.\nMethods: The literature review was conducted using Preferred Reporting Items for Systematic Reviews and Meta-Analyses (PRISMA) guidelines. It identified English-language articles published from Jan. 1, 2000 to Jul. 31, 2022 reporting amputation rates associated with iloprost and standard of care (SoC) treatments in severe frostbite. Study designs of interest were clinical trials (randomized and single arm), observational studies, and case series with at least 10 patients. MAs of proportions of patients with amputation were conducted. The published studies considered for the MA include:\nDetermination of Risk of Amputation: Table 1 discloses the historical amputation rates in severe frostbite patients. The studies listed in Table 1 was the basis of MA for determining the historical risk of amputation.\nSensitivity analyses reflect several ways of deriving the data (amputation rate for grade 3-4 frostbite) from the supplemental table in Cauchy 2011 (Cauchy et al., 2011).\nEfficacy Proportion of Digits with Amputation: Data from 2 studies reporting the proportion of digits with amputations after receiving iloprost versus SoC for Grade 3/4 frostbite were included in the meta-analysis."}, "[2]": {"assay": "IV bag solution stability of fully diluted ready-to-use iloprost (HPLC)", "assay_type": "physicochemical", "conditions": "condition ia, 25° C./60% RH study; Table 1A", "method": "Iloprost 100 μg/mL injection product is administered to patients by IV bag infusion over a period of six hours. The fully diluted ready to use iloprost is prepared in pharmacy cleanroom using sterile preparation standards (USP Chapter <797>) by pharmacy trained and licensed staff. The fully diluted ready to use drug product may be prepared several hours ahead of treatment with storage at ambient conditions or several days ahead of treatment with storage at refrigerated (2-8° C.) conditions. […] The bags are then manually mixed gently to provide a uniform solution. Administration IV bags were prepared and stored at several conditions with routine sampling for assay testing for stability under i) 25° C./60% RH, ii) 5° C. for 5 days to 25° C./60% RH, iii) 5° C. for 8 days to 25° C./60% RH. […] Sampling time for condition […], and 24 h Sampling time for ib): 8 h, 12 h, 48 h, and 96 h Sampling time for condition ii): 5 days (at the end of storage in 2-8° C. stability chamber), 5 days and 8 h, and 5 days and 12 h Sampling time for condition iii): 8 days (at the end of storage in 2-8° C. stability chamber), 8 days and 8 h, and 8 days and 12 h Sample Analysis: Samples were analyzed by HPLC using a validated method (validation protocol not shown). […] The % Initial (initial concentration) of each stored sample was determined per the equation below: […]"}, "[3]": {"conditions": "iloprost infusion; ratio x:1; cited from earlier work"}, "severe frostbite [4]": {"test_system": "severe frostbite", "conditions": "cited from earlier work"}, "[5]": {"conditions": "Cauchy 2011, iloprost alone and iloprost+tPA combined (n=177)"}}, "note": "Where two headings read alike, the source gives them in different places."}
{"smiles": "CC#CCC(C)[C@H](O)/C=C/[C@@H]1[C@H]2C/C(=C/CCCC(=O)O)C[C@H]2C[C@H]1O", "note": "(stereo partly drawn) [iloprost, (5E)-5-[(3aS,4R,5R,6aS)-5-hydroxy-4-[(E,3S)-3-hydroxy-4-methyloct-1-en-6-ynyl]-3,3a,4,5,6,6a-hexahydro-1H-pentalen-2-ylidene]pentanoic acid]", "values": [{"measurement": "odds ratio (OR) of digit amputation, iloprost+tPA patients of Cauchy 2011 added", "setting": "severe frostbite [1]; iloprost alone and iloprost plus tPA vs SoC, 95% CI: 0.001, 1.12, p=0.057, FIG. 4", "result": 0.034}, {"measurement": "odds ratio (OR) of digit amputation, base-case", "setting": "severe frostbite [1]; iloprost alone vs SoC, 2 studies meta-analyzed, 95% CI: 0.002-0.966, p=0.047, FIG. 3", "result": 0.047}, {"measurement": "proportion of patients with amputation, pooled arm-level data", "setting": "severe frostbite [1]; meta-analysis, random effects, 95% CI: 0-45%, FIG. 2", "result": 15, "unit": "%"}, {"measurement": "advantage for iloprost over SoC (reduction in amputation), base-case", "setting": "severe frostbite [1]; studies with severe frostbite, no alprostadil, 95% CI: 6-73%, p=0.02", "result": 39, "unit": "%"}, {"measurement": "% initial results for all of the IV bag preparations (range)", "setting": "[2]", "result": "94.2-94.9%"}, {"measurement": "ratio of antiaggregatory:vasodilatory potency in vivo", "setting": "[3]", "result": "2-7"}, {"measurement": "Amputation Rate: patients considered likely to receive amputation", "setting": "severe frostbite [4]; Cauchy 2011, open label RCT, severe (grades 3 or 4) frostbite, with SoC after rewarming, radiotracer anomaly in technetium scintigraphy after 8 days of treatment", "result": 0, "unit": "patients"}, {"measurement": "digits with amputation", "setting": "severe frostbite [4]; Cauchy 2011, Grade 3/4 frostbite, iloprost alone", "result": "zero out of 78"}, {"measurement": "digit amputations", "setting": "severe frostbite [4]; [5]", "result": 1.3, "unit": "%"}, {"measurement": "number of digit amputations", "setting": "severe frostbite [4]; [5]", "result": 3}, {"measurement": "digits with amputation", "setting": "severe frostbite [4]; Crooks 2022, Grade 3-4 frostbite, minority of iloprost patients also received tPA (5 of 26)", "result": 31.1, "unit": "%"}, {"measurement": "patients with amputation", "setting": "severe frostbite [4]; Poole 2021, iloprost plus SoC, with or without alteplase and heparin", "result": 33, "unit": "%"}, {"measurement": "safety events associated with iloprost", "setting": "severe frostbite [4]; three iloprost frostbite studies, headache, flushing, palpitations/tachycardia, nausea and vomiting", "result": "generally mild"}]}
